Experimental data reported in PubChem BioAssay AID2060505 (Molecular Pharmacology Branch, DTP, NCI, 2025).

Test system: 633275-114-R-J1-PDC complex spheroids, viability
Experiment: Anticancer human tumor 633275-114-R-J1-PDC patient-derived endometrial adenocarcinoma cell line growth inhibition [GQUAD]
Conditions: for IC50: curve of first compound; for viability, T/C: stronger effect = lower value
Text: DNA G-quadruplex Stabilizer Agents in Combinations in Complex Spheroids
A high-throughput screen of multi-cell type tumor spheroids was designed to identify active combinations of DNA G-quadruplex stabilizer agents and targeted small molecules. Complex spheroids include a stromal component modeled by human endothelial cells (HUVEC) and fibroblasts modeled by human mesenchymal stem cells (MSCs). The concentration ranges selected for each drug and investigational agent were based upon clinically achievable concentrations if the clinical Cmax of the agent was known.
Compounds. The drugs and investigational agents: pidnarulex (CX-5461; NSC782164), APTO-253 (NSC789042), BRACO-19 (NSC847499), peposertib (NSC802822), ceralasertib (NSC780249), elimusertib (NSC800525), camonsertib (NSC841442), AZD-1390 (NSC803789), olaparib (NSC753686), talazoparib (NSC767125), ART-558 (NSC835418), sotorasib (NSC818433), MRTX-1133 (NSC836407), SN-38 (NSC673596), topotecan (NSC609699), etoposide (NSC141540), doxorubicin (NSC123127), gemcitabine (NSC613327), 5-fluorouracil (NSC19893), paclitaxel (NSC125973), vemurafenib (NSC761431), panobinostat (NSC761190), R-306465 (JNJ-16241199; NSC773264), adavosertib (NSC754352), TP-3654 (NSC805149), carboplatin (NSC241240), KSQ-4279 (NSC840948), and staurosporine (NSC755774) were obtained from the National Cancer Institute (NCI) Developmental Therapeutics Program Chemical Repository (34). The FDA-approved anticancer drug set is available from the NCI Developmental Therapeutics Program. […] The stock solutions were prepared in dimethyl sulfoxide (DMSO, Sigma-Aldrich, St. Louis, MO, cat. D2650) at 800-fold the tested concentration and stored at -70 degrees C prior to their use. All drugs and investigational agents were tested over a range starting from a high concentration at or near the clinical Cmax and decreasing in half-log increments. If the clinical Cmax for an agent had not been determined, the highest concentration tested was 10 microM.
2.3 Cell Culture. All cells were maintained in an incubator at 37 degrees C and 5% CO2 with 95% humidity. The PDC lines were cultured according to standard operating procedures established by the NCI PDMR. All PDCs were thawed and cultured in Matrigel-coated flasks prepared with a working solution of 1X Ham's F-12 nutrient mix, without supplementation (Invitrogen, cat. 11765054), 100 U/mL penicillin-streptomycin (Invitrogen, cat. 15140122), and 2.5% Matrigel (Corning Inc., cat. 354248) for the first three passages. The 857933-349-R-J2-PDC line was cultured in 6C/Colon 1B media, which includes advanced DMEM/F-12 (Thermo Fisher Scientific, cat. 12634028), 10 mM HEPES (Thermo Fisher Scientific, cat. 15630080), 1X GlutaMAX supplement (Thermo Fisher Scientific, cat. 35050061), 0.1 mg/mL primocin (InvivoGen, cat. ant-pm-2), 10% defined fetal bovine serum, heat inactivated (HyClone Laboratories Inc., cat. SH30070.03HI), 50% L-WRN conditioned media (ATCC, cat. CRL-3276), 1.25 mM N-Acetyl-L-cysteine (Sigma-Aldrich, cat. A9165), 10 mM nicotinamide (Sigma-Aldrich, cat. N0636), 1X B-27 supplement (Thermo Fisher Scientific, cat. 17504044), 1X N-2 supplement (Thermo Fisher Scientific, cat. 17502048), 10 microM Y-27632 dihydrochloride (Tocris Bioscience, cat. 1254), and 50 ng/mL human EGF recombinant protein (Thermo Fisher Scientific, cat. PHG0311). The 485176-168-R4-J1-PDC line was cultured in Panc media, which includes all 6C/Colon 1B media components plus 100 ng/mL human FGF-10 (Thermo Fisher Scientific, cat. 100-26), 500 nM SB-431542 (Selleckchem, cat. S1067), and gastrin (Tocris, cat. 3006).
[…]

[1] = second compound 0.0316 µM, first compound 0.0316 µM
[2] = second compound 0.0316 µM, first compound 0.1 µM
[3] = second compound 0.0316 µM, first compound 0.316 µM
[4] = second compound 0.0316 µM, first compound 1 µM
[5] = second compound 0.0316 µM, first compound 3.16 µM
[6] = second compound 0.0316 µM, first compound 10 µM
[7] = second compound 0.1 µM, first compound 0.0316 µM
[8] = second compound 0.1 µM, first compound 0.1 µM
[9] = second compound 0.1 µM, first compound 0.316 µM
[10] = second compound 0.1 µM, first compound 1 µM
[11] = second compound 0.1 µM, first compound 3.16 µM
[12] = second compound 0.1 µM, first compound 10 µM
[13] = second compound 0.316 µM, first compound 0.0316 µM
[14] = second compound 0.316 µM, first compound 0.1 µM
[15] = second compound 0.316 µM, first compound 0.316 µM
[16] = second compound 0.316 µM, first compound 1 µM
[17] = second compound 0.316 µM, first compound 3.16 µM
[18] = second compound 0.316 µM, first compound 10 µM
[19] = second compound 1 µM, first compound 0.0316 µM
[20] = second compound 1 µM, first compound 0.1 µM
[21] = second compound 1 µM, first compound 0.316 µM
[22] = second compound 1 µM, first compound 1 µM
[23] = second compound 1 µM, first compound 3.16 µM
[24] = second compound 1 µM, first compound 10 µM
[25] = second compound 3.16 µM, first compound 0.0316 µM
[26] = second compound 3.16 µM, first compound 0.1 µM
[27] = second compound 3.16 µM, first compound 0.316 µM
[28] = second compound 3.16 µM, first compound 1 µM
[29] = second compound 3.16 µM, first compound 3.16 µM
[30] = second compound 3.16 µM, first compound 10 µM
[31] = second compound 10 µM, first compound 0.0316 µM
[32] = second compound 10 µM, first compound 0.1 µM
[33] = second compound 10 µM, first compound 0.316 µM
[34] = second compound 10 µM, first compound 1 µM
[35] = second compound 10 µM, first compound 3.16 µM
[36] = second compound 10 µM, first compound 10 µM
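Further: spheroids exposed to the agents for seven days.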
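Wherever viability, T/C is given: percent of DMSO vehicle control viability which is 100%.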

Compound: CC1COCCN1c1cc(C2(S(C)(=N)=O)CC2)nc(-c2ccnc3[nH]ccc23)n1 (stereo unspecified) + CN(C)c1ccc(Nc2c3ccc(NC(=O)CCN4CCCC4)cc3nc3cc(NC(=O)CCN4CCCC4)ccc23)cc1
- IC50 (second compound 0.0316 µM): 3.49 µM
- IC50 (second compound 0.1 µM): 4.43 µM
- IC50 (second compound 0.316 µM): 3.81 µM
- IC50 (second compound 1 µM): 2.78 µM
- IC50 (second compound 3.16 µM): 3.05 µM
- IC50 (second compound 10 µM): < 0.0316 µM
- viability, T/C [1]: 101%
- viability, T/C [2]: 103%
- viability, T/C [3]: 103%
- viability, T/C [4]: 74.2%
- viability, T/C [5]: 54.6%
- viability, T/C [6]: 34.9%
- viability, T/C [7]: 115%
- viability, T/C [8]: 96.1%
- viability, T/C [9]: 97.1%
- viability, T/C [10]: 84.6%
- viability, T/C [11]: 53.1%
- viability, T/C [12]: 34.5%
- viability, T/C [13]: 109%
- viability, T/C [14]: 94.7%
- viability, T/C [15]: 101%
- viability, T/C [16]: 82.9%
- viability, T/C [17]: 52.8%
- viability, T/C [18]: 35.4%
- viability, T/C [19]: 98%
- viability, T/C [20]: 87.8%
- viability, T/C [21]: 95.4%
- viability, T/C [22]: 70.1%
- viability, T/C [23]: 49%
- viability, T/C [24]: 33.7%
- viability, T/C [25]: 86.3%
- viability, T/C [26]: 85.1%
- viability, T/C [27]: 84.4%
- viability, T/C [28]: 66.9%
- viability, T/C [29]: 50.7%
- viability, T/C [30]: 32.8%
- viability, T/C [31]: 37%
- viability, T/C [32]: 38.2%
- viability, T/C [33]: 36%
- viability, T/C [34]: 32.6%
- viability, T/C [35]: 28%
- viability, T/C [36]: 19.9%

Compound: COc1ccc([C@@H](O)c2cc(-c3ncnc4cc(N5CCOCC5)ccc34)c(F)cc2Cl)nn1 + CN(C)c1ccc(Nc2c3ccc(NC(=O)CCN4CCCC4)cc3nc3cc(NC(=O)CCN4CCCC4)ccc23)cc1
- IC50 (second compound 0.0316 µM): 4.67 µM
- IC50 (second compound 0.1 µM): 3.73 µM
- IC50 (second compound 0.316 µM): 2.64 µM
- IC50 (second compound 1 µM): 1.71 µM
- IC50 (second compound 3.16 µM): 0.938 µM
- IC50 (second compound 10 µM): < 0.0316 µM
- viability, T/C [1]: 108%
- viability, T/C [2]: 97.2%
- viability, T/C [3]: 83.7%
- viability, T/C [4]: 74.7%
- viability, T/C [5]: 55.7%
- viability, T/C [6]: 37.6%
- viability, T/C [7]: 96%
- viability, T/C [8]: 102%
- viability, T/C [9]: 88.9%
- viability, T/C [10]: 71.1%
- viability, T/C [11]: 55.3%
- viability, T/C [12]: 32.3%
- viability, T/C [13]: 92.5%
- viability, T/C [14]: 91.6%
- viability, T/C [15]: 93.5%
- viability, T/C [16]: 65.3%
- viability, T/C [17]: 49.8%
- viability, T/C [18]: 30.9%
- viability, T/C [19]: 91.8%
- viability, T/C [20]: 88%
- viability, T/C [21]: 81.3%
- viability, T/C [22]: 59.6%
- viability, T/C [23]: 38.7%
- viability, T/C [24]: 26.8%
- viability, T/C [25]: 84.2%
- viability, T/C [26]: 81.2%
- viability, T/C [27]: 73.7%
- viability, T/C [28]: 46.9%
- viability, T/C [29]: 30.6%
- viability, T/C [30]: 20.4%
- viability, T/C [31]: 33.8%
- viability, T/C [32]: 34.8%
- viability, T/C [33]: 21.5%
- viability, T/C [34]: 13.8%
- viability, T/C [35]: 11.8%
- viability, T/C [36]: 9.3%

Compound: O=C(c1cc(Cc2n[nH]c(=O)c3ccccc23)ccc1F)N1CCN(C(=O)C2CC2)CC1 + CN(C)c1ccc(Nc2c3ccc(NC(=O)CCN4CCCC4)cc3nc3cc(NC(=O)CCN4CCCC4)ccc23)cc1
- IC50 (second compound 0.0316 µM): 9.96 µM
- IC50 (second compound 0.1 µM): 9.89 µM
- IC50 (second compound 0.316 µM): > 10 µM
- IC50 (second compound 1 µM): > 10 µM
- IC50 (second compound 3.16 µM): 5.36 µM
- IC50 (second compound 10 µM): < 0.0316 µM
- viability, T/C [1]: 88.7%
- viability, T/C [2]: 93.8%
- viability, T/C [3]: 95%
- viability, T/C [4]: 80%
- viability, T/C [5]: 81.6%
- viability, T/C [6]: 49.2%
- viability, T/C [7]: 95.5%
- viability, T/C [8]: 98.1%
- viability, T/C [9]: 92.7%
- viability, T/C [10]: 79.7%
- viability, T/C [11]: 69%
- viability, T/C [12]: 49.2%
- viability, T/C [13]: 91.1%
- viability, T/C [14]: 99.8%
- viability, T/C [15]: 88.4%
- viability, T/C [16]: 76.1%
- viability, T/C [17]: 75.8%
- viability, T/C [18]: 58.4%
- viability, T/C [19]: 104%
- viability, T/C [20]: 82.9%
- viability, T/C [21]: 78.7%
- viability, T/C [22]: 78.3%
- viability, T/C [23]: 69.8%
- viability, T/C [24]: 47.8%
- viability, T/C [25]: 75.5%
- viability, T/C [26]: 80.6%
- viability, T/C [27]: 69.6%
- viability, T/C [28]: 65.5%
- viability, T/C [29]: 62.9%
- viability, T/C [30]: 38%
- viability, T/C [31]: 25.3%
- viability, T/C [32]: 26.1%
- viability, T/C [33]: 27.1%
- viability, T/C [34]: 25.4%
- viability, T/C [35]: 29%
- viability, T/C [36]: 21.1%
